Experimental data as given in PubChem BioAssay AID192 (DTP/NCI, 2004).
Values joined by “and” are separate entries in the source; they are usually repeats but may differ in a detail not shown here. Identical values can stand only once. Toxic doses and inconclusive results are not listed.

Tested on: BDF1 mice, B16 melanoma ip, median survival T/C
Test: NCI In Vivo Anticancer Drug Screen. Data for tumor model B16 Melanoma (intraperitoneal) in B6D2F1 (BDF1) mice
Conditions: endpoint: median survival time, higher = longer survival
Procedure, shortened: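 Values are ratios of treated (T) to vehicle-control (C) measurements of survival or tumor size in tumor-bearing mice.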

[1] = dose: 12.5 mg/kg/injection, schedule: Q01DX009 (ip), vehicle: saline with Tween-80
[2] = dose: 25.0 mg/kg/injection, schedule: Q01DX009 (ip), vehicle: saline with Tween-80
[3] = dose: 50.0 mg/kg/injection, schedule: Q01DX009 (ip), vehicle: saline with Tween-80
[4] = dose: 12.5 mg/kg/injection, schedule: Q01DX009 (ip), vehicle: Klucel (hydroxypropylcellulose) (HPC)
[5] = dose: 25.0 mg/kg/injection, schedule: Q01DX009 (ip), vehicle: Klucel (hydroxypropylcellulose) (HPC)
[6] = dose: 50.0 mg/kg/injection, schedule: Q01DX009 (ip), vehicle: Klucel (hydroxypropylcellulose) (HPC)
[7] = dose: 100.0 mg/kg/injection, schedule: Q01DX009 (ip), vehicle: Klucel (hydroxypropylcellulose) (HPC)
[8] = dose: 200.0 mg/kg/injection, schedule: Q01DX009 (ip), vehicle: Klucel (hydroxypropylcellulose) (HPC)
[9] = dose: 400.0 mg/kg/injection, schedule: Q01DX009 (ip), vehicle: Klucel (hydroxypropylcellulose) (HPC)
[10] = dose: 25.0 mg/kg/injection, schedule: Q01DX009 (ip), vehicle: saline
[11] = dose: 50.0 mg/kg/injection, schedule: Q01DX009 (ip), vehicle: saline
[12] = dose: 100.0 mg/kg/injection, schedule: Q01DX009 (ip), vehicle: saline
[13] = dose: 100.0 mg/kg/injection, schedule: Q01DX009 (ip), vehicle: saline with Tween-80
[14] = dose: 200.0 mg/kg/injection, schedule: Q01DX009 (ip), vehicle: saline with Tween-80
[15] = dose: 400.0 mg/kg/injection, schedule: Q01DX009 (ip), vehicle: saline with Tween-80

COc1ccc(NC(=O)Nc2cc(C(F)(F)F)ccc2Cl)cc1
T/C (dose: 8.0 mg/kg/injection, schedule: Q01DX009 (ip), vehicle: saline with Tween-80): 100 % of control
T/C (dose: 12.0 mg/kg/injection, schedule: Q01DX009 (ip), vehicle: saline with Tween-80): 100 % of control
T/C [1]: 215 % of control
T/C (dose: 18.0 mg/kg/injection, schedule: Q01DX009 (ip), vehicle: saline with Tween-80): 104 % of control
T/C [2]: 194 % of control
T/C [3]: 218 % of control

CN(C)N=Nc1ccnc2c(I)cccc12
T/C (dose: 25.2 mg/kg/injection, schedule: Q01DX008 (ip), vehicle: DMSO): 92 % of control
T/C (dose: 42.0 mg/kg/injection, schedule: Q01DX008 (ip), vehicle: DMSO): 97 % of control
T/C (dose: 70.0 mg/kg/injection, schedule: Q01DX008 (ip), vehicle: DMSO): 99 % of control
T/C (dose: 116.7 mg/kg/injection, schedule: Q01DX008 (ip), vehicle: DMSO): 92 % of control

CCOC(=O)CNC(=O)Sc1ccc(C(C)(C)C)cc1
T/C [4]: 97 % of control
T/C [5]: 101 % of control
T/C [6]: 104 % of control
T/C [7]: 106 % of control
T/C [8]: 106 % of control
T/C [9]: 120 % of control

NC(CSCc1ccccc1)C(=O)O (configuration not stated)
T/C [5]: 98 % of control
T/C [6]: 106 % of control
T/C [7]: 102 % of control
T/C [8]: 98 % of control
T/C [9]: 117 % of control

CSc1sc2ccccc2[n+]1C
T/C [10]: 100 % of control
T/C [11]: 98 % of control
T/C [12]: 91 % of control

CCCCCCCCSSCCCCCCCC
T/C [13]: 108 % of control
T/C [14]: 101 % of control
T/C [15]: 98 % of control

CCNCc1cc(Nc2cc(C)nc(/N=C(\N)Nc3ccc(Cl)c(Cl)c3)n2)ccc1OC
T/C (dose: 6.25 mg/kg/injection, schedule: Q01DX009 (ip), vehicle: Klucel (hydroxypropylcellulose) (HPC)): 100 % of control
T/C [4]: 102 % of control
T/C [5]: 91 % of control

CC/C=C/c1cccc(OC)c1
T/C [7]: 96 % of control
T/C [8]: 96 % of control
T/C [9]: 92 % of control

CC(O)(C(=O)O)c1ccccc1 (configuration not stated) (tested in a mixture with another compound)
T/C [7]: 94 % of control
T/C [8]: 105 % of control
T/C [9]: 97 % of control

C/C=C(/C)C(=O)O[C@H]1CCN2CC=C(COC(=O)[C@@](O)([C@H](C)OC)C(C)(C)O)[C@H]12
T/C (dose: 12.5 mg/kg/injection, schedule: Q01DX009 (ip), vehicle: saline): 114 % of control
T/C [10]: 104 % of control

NC(CC(=O)O)C(=O)OCc1ccccc1 (configuration not stated)
T/C [10]: 95 % of control
T/C [11]: 108 % of control
T/C [12]: 114 % of control
T/C (dose: 200.0 mg/kg/injection, schedule: Q01DX009 (ip), vehicle: saline): 105 % of control

O=C(O)c1ccc2sc3ccccc3c(=O)c2c1
T/C (dose: 75.0 mg/kg/injection, schedule: Q01DX009 (ip), vehicle: Klucel (hydroxypropylcellulose) (HPC)): 100 % of control
T/C (dose: 150.0 mg/kg/injection, schedule: Q01DX009 (ip), vehicle: Klucel (hydroxypropylcellulose) (HPC)): 96 % of control
T/C (dose: 300.0 mg/kg/injection, schedule: Q01DX009 (ip), vehicle: Klucel (hydroxypropylcellulose) (HPC)): 96 % of control

CCC(C)C(NC=O)C(=O)O (configuration not stated)
T/C [3]: 97 % of control
T/C [13]: 95 % of control
T/C [14]: 92 % of control
T/C [15]: 91 % of control

CCC(C)C1CCCCC1 (configuration not stated)
T/C [7]: 91 % of control
T/C [8]: 108 % of control
T/C [9]: 98 % of control

COc1cccc2c1C(=O)c1c(O)c3c(c(O)c1C2=O)C[C@@](O)(C(=O)CO)C[C@@H]3OC1CC([N+](C)(C)C)C(O)C(C)O1 (some centres not stated)
T/C (dose: 4.32 mg/kg/injection, schedule: Q04DX003 (ip), vehicle: water): 108 % of control and 110 % of control
T/C (dose: 6.48 mg/kg/injection, schedule: Q01DX001 (ip), vehicle: water): 107 % of control and 119 % of control
T/C (dose: 7.2 mg/kg/injection, schedule: Q04DX003 (ip), vehicle: water): 116 % of control and 119 % of control
T/C (dose: 10.8 mg/kg/injection, schedule: Q01DX001 (ip), vehicle: water): 103 % of control and 123 % of control
T/C (dose: 12.0 mg/kg/injection, schedule: Q04DX003 (ip), vehicle: water): 108 % of control and 112 % of control
T/C (dose: 18.0 mg/kg/injection, schedule: Q01DX001 (ip), vehicle: water): 105 % of control
T/C (dose: 20.0 mg/kg/injection, schedule: Q04DX003 (ip), vehicle: water): 107 % of control
T/C (dose: 30.0 mg/kg/injection, schedule: Q01DX001 (ip), vehicle: water): 102 % of control and 113 % of control

Cc1ccc([I+]c2ccc(C)cc2C)c(C)c1
T/C (dose: 0.18 mg/kg/injection, schedule: Q01DX009 (ip), vehicle: Klucel (hydroxypropylcellulose) (HPC)): 114 % of control
T/C (dose: 0.37 mg/kg/injection, schedule: Q01DX009 (ip), vehicle: Klucel (hydroxypropylcellulose) (HPC)): 92 % of control
T/C (dose: 0.75 mg/kg/injection, schedule: Q01DX009 (ip), vehicle: Klucel (hydroxypropylcellulose) (HPC)): 87 % of control
T/C (dose: 6.0 mg/kg/injection, schedule: Q01DX009 (ip), vehicle: Klucel (hydroxypropylcellulose) (HPC)): 90 % of control

CNCCNc1ccc(NCCNC)c2c1C(=O)c1ccccc1C2=O
T/C (dose: 2.0 mg/kg/injection, schedule: Q01DX009 (ip), vehicle: acid diluted with saline): 156 % of control
T/C (dose: 4.0 mg/kg/injection, schedule: Q01DX009 (ip), vehicle: acid diluted with saline): 230 % of control
T/C (dose: 8.0 mg/kg/injection, schedule: Q01DX009 (ip), vehicle: acid diluted with saline): 231 % of control

O=C(O)Cc1c(O)ccc2ccccc12
T/C (dose: 25.0 mg/kg/injection, schedule: Q04DX003 (ip), vehicle: gum acacia): 100 % of control
T/C (dose: 50.0 mg/kg/injection, schedule: Q04DX003 (ip), vehicle: gum acacia): 100 % of control
T/C (dose: 100.0 mg/kg/injection, schedule: Q04DX003 (ip), vehicle: gum acacia): 97 % of control

Nc1nc(SCc2ccccc2F)c2ncn(C3OC(CO)C(O)C3O)c2n1 (configuration not stated)
T/C (dose: 3.12 mg/kg/injection, schedule: Q01DX009 (ip), vehicle: saline with Tween-80): 105 % of control
T/C (dose: 6.25 mg/kg/injection, schedule: Q01DX009 (ip), vehicle: saline with Tween-80): 116 % of control
T/C [1]: 122 % of control
T/C [2]: 95 % of control

CC(=O)Oc1ccc(Nc2c3ccccc3nc3ccccc23)cc1
T/C (dose: 1.87 mg/kg/injection, schedule: Q01DX009 (ip), vehicle: saline with Tween-80): 110 % of control
T/C (dose: 3.75 mg/kg/injection, schedule: Q01DX009 (ip), vehicle: saline with Tween-80): 114 % of control
T/C (dose: 7.5 mg/kg/injection, schedule: Q01DX009 (ip), vehicle: saline with Tween-80): 121 % of control
T/C (dose: 29.3 mg/kg/injection, schedule: Q01DX009 (ip), vehicle: saline with Tween-80): 197 % of control
T/C (dose: 30.0 mg/kg/injection, schedule: Q01DX009 (ip), vehicle: saline with Tween-80): 156 % of control and 158 % of control
T/C (dose: 40.0 mg/kg/injection, schedule: Q01DX009 (ip), vehicle: saline with Tween-80): 150 % of control

O=CC(NC(=O)N(CCF)N=O)C(O)C(O)C(O)CO (configuration not stated)
T/C (dose: 3.12 mg/kg/injection, schedule: Q01DX001 (ip), vehicle: saline): 100 % of control
T/C (dose: 25.0 mg/kg/injection, schedule: Q01DX001 (ip), vehicle: saline): 171 % of control
T/C (dose: 50.0 mg/kg/injection, schedule: Q01DX001 (ip), vehicle: saline): 189 % of control
T/C (dose: 100.0 mg/kg/injection, schedule: Q01DX001 (ip), vehicle: saline): 231 % of control

O=C(NO)c1ccncc1
T/C (dose: 25.0 mg/kg/injection, schedule: Q01DX009 (ip), vehicle: water): 96 % of control
T/C (dose: 50.0 mg/kg/injection, schedule: Q01DX009 (ip), vehicle: water): 106 % of control and 111 % of control
T/C (dose: 100.0 mg/kg/injection, schedule: Q01DX009 (ip), vehicle: water): 93 % of control and 105 % of control
T/C (dose: 200.0 mg/kg/injection, schedule: Q01DX009 (ip), vehicle: water): 100 % of control
T/C (dose: 300.0 mg/kg/injection, schedule: Q01DX009 (ip), vehicle: water): 93 % of control
T/C (dose: 400.0 mg/kg/injection, schedule: Q01DX009 (ip), vehicle: water): 100 % of control
T/C (dose: 600.0 mg/kg/injection, schedule: Q01DX009 (ip), vehicle: water): 105 % of control and 107 % of control
T/C (dose: 700.0 mg/kg/injection, schedule: Q01DX009 (ip), vehicle: water): 100 % of control
